pEC50, pIC50: −log10 of the molar value. Read-outs that look alike come from different tables or passages of the source.
Test system: 280 human cancer cell lines
Test: OncoPanel cell proliferation assay (10-day)
Format: cell-based
Conditions: for pEC50: read-out: Cell Count EC50; for pIC50: read-out: Cell Count IC50
[1] = Homo sapiens, 22Rv1, 22Rv1, Prostate
[2] = Homo sapiens, 786-0, 786-O, Kidney
[3] = Homo sapiens, A7, Skin (Melanoma)
[4] = Homo sapiens, A101D, Skin (Melanoma)
[5] = Homo sapiens, A 172, A172, CNS - Glioma
[6] = Homo sapiens, A253, A-253, Head and Neck
[7] = Homo sapiens, A388, Head and Neck
[8] = Homo sapiens, A498, A498, Kidney
[9] = Homo sapiens, A673, A-673, Soft Tissue - Sarcoma
[10] = Homo sapiens, A704, A-704, Kidney
[11] = Homo sapiens, A-375, A375, Skin (Melanoma)
[12] = Homo sapiens, A-427, A427, Lung - NSCLC
[13] = Homo sapiens, A-431, A431, Head and Neck
[14] = Homo sapiens, AN3-CA, AN3 CA, Female GU - Uterus
[15] = Homo sapiens, ARH-77, ARH-77, Myeloma
[16] = Homo sapiens, ASPC1, AsPC-1, Pancreas
[17] = Homo sapiens, AU565, AU565, Breast
[18] = Homo sapiens, BCP-1, BCP-1, Lymphoma
[19] = Homo sapiens, BE(2)-C, BE(2)C, CNS - Neuroblastoma
[20] = Homo sapiens, BFTC-905, BFTC-905, Bladder
[21] = Homo sapiens, BHT-101, BHT-101, Endocrine - Thyroid
[22] = Homo sapiens, BM-1604, BM-1604, Prostate
[23] = Homo sapiens, BPH-1, BPH1, Prostate
[24] = Homo sapiens, BT-20, BT20, Breast

`CC(C)=CCC[C@@H]1C(O)Oc2c(C)cc(O)c3c2[C@H]1CC[C@H]3C` (stereo partly shown) [Compound 2, 5,18-epoxyserrulat-14-en-8,18-diol] was tested, and the “Number of cell types, GI Activity Potent” value (GI50 range 0.03-0.099 μM, of 280 cell types) was 1, the “Number of cell types, GI Activity moderately potent” value (GI50 range 0.1-0.99 μM, of 280 cell types) was 1 and the “Number of cell types, GI Activity Strong” value (GI50 range 1-2.99 μM, of 280 cell types) was 8. For the same molecule, the “Number of cell types, GI Activity moderately strong” value (GI50 range 3-9.99 μM, of 280 cell types) was 110, the “Number of cell types, GI Activity weak” value (GI50 range 10-30.00 μM, of 280 cell types) was 118 and the “Number of cell types, GI Activity very weak” value (GI50 range >30 μM, of 280 cell types) was 42. For the same molecule, the GI50 (Homo sapiens, 10 cell lines with potent to strong activity, read-out: GI50) was 0.06 to 2.96 µM, the pEC50 [1] was 4.94 and the GI50 (Homo sapiens, 22Rv1, 22Rv1, Prostate, read-out: Cell Count GI50) was 11.3 µM. The pIC50 [1] was 4.94, the pEC50 (Homo sapiens, 647-V, Bladder) was 4.95 and the GI50 (Homo sapiens, 647-V, Bladder, read-out: Cell Count GI50) was 11.2 µM. For the same molecule, the pIC50 (Homo sapiens, 647-V, Bladder) was 4.95, the pEC50 (Homo sapiens, 769-P, Kidney) was 5.16 and the GI50 (Homo sapiens, 769-P, Kidney, read-out: Cell Count GI50) was 6.94 µM. It also gave a pIC50 (Homo sapiens, 769-P, Kidney) of 5.16, a pEC50 [2] of 4.55 and a GI50 (Homo sapiens, 786-0, 786-O, Kidney, read-out: Cell Count GI50) of 27.9 µM. It also gave a pIC50 [2] of 4.55, a pEC50 (Homo sapiens, 5637, Bladder) of under 4.52 and a GI50 (Homo sapiens, 5637, Bladder, read-out: Cell Count GI50) of over 30 µM. For the same molecule, the pIC50 (Homo sapiens, 5637, Bladder) was under 4.52, the pEC50 [3] was 5.26 and the GI50 (Homo sapiens, A7, Skin (Melanoma), read-out: Cell Count GI50) was 5.6 µM. For the same molecule, the pIC50 [3] was 5.25, the pEC50 [4] was under 4.52 and the GI50 (Homo sapiens, A101D, Skin (Melanoma), read-out: Cell Count GI50) was over 30 µM. The pIC50 [4] was under 4.52, the pEC50 [5] was 5.04 and the GI50 (Homo sapiens, A 172, A172, CNS - Glioma, read-out: Cell Count GI50) was 8.93 µM. The pIC50 [5] was 5.04, the pEC50 [6] was 4.55 and the GI50 (Homo sapiens, A253, A-253, Head and Neck, read-out: Cell Count GI50) was 28.7 µM. It also gave a pIC50 [6] of 4.54, a pEC50 [7] of 4.87 and a GI50 (Homo sapiens, A388, Head and Neck, read-out: Cell Count GI50) of 13.4 µM. For the same molecule, the pIC50 [7] was 4.87, the pEC50 [8] was 4.88 and the GI50 (Homo sapiens, A498, A498, Kidney, read-out: Cell Count GI50) was 13.2 µM. For the same molecule, the pIC50 [8] was 4.88, the pEC50 (Homo sapiens, A549, A549, Lung - NSCLC) was 4.66 and the GI50 (Homo sapiens, A549, A549, Lung - NSCLC, read-out: Cell Count GI50) was 21.9 µM. It also gave a pEC50 [9] of 4.97, a GI50 (Homo sapiens, A673, A-673, Soft Tissue - Sarcoma, read-out: Cell Count GI50) of 11.1 µM and a pIC50 [9] of 4.95. It also gave a pEC50 [10] of under 4.52, a GI50 (Homo sapiens, A704, A-704, Kidney, read-out: Cell Count GI50) of over 30 µM and a pIC50 [10] of under 4.52. For the same molecule, the pEC50 [11] was 5.19, the GI50 (Homo sapiens, A-375, A375, Skin (Melanoma), read-out: Cell Count GI50) was 6.44 µM and the pIC50 [11] was 5.19. For the same molecule, the pEC50 [12] was 4.95, the GI50 (Homo sapiens, A-427, A427, Lung - NSCLC, read-out: Cell Count GI50) was 11.2 µM and the pIC50 [12] was 4.95. For the same molecule, the pEC50 [13] was under 4.52, the GI50 (Homo sapiens, A-431, A431, Head and Neck, read-out: Cell Count GI50) was over 30 µM and the pIC50 [13] was under 4.52. It also gave a pEC50 (Homo sapiens, ACHN, Kidney) of 5.06, a GI50 (Homo sapiens, ACHN, Kidney, read-out: Cell Count GI50) of 8.76 µM and a pIC50 (Homo sapiens, ACHN, Kidney) of 5.06. For the same molecule, the pEC50 (Homo sapiens, AGS, Stomach) was 5.33, the GI50 (Homo sapiens, AGS, Stomach, read-out: Cell Count GI50) was 4.69 µM and the pIC50 (Homo sapiens, AGS, Stomach) was 5.33. The pEC50 [14] was 4.95, the GI50 (Homo sapiens, AN3-CA, AN3 CA, Female GU - Uterus, read-out: Cell Count GI50) was 11.1 µM and the pIC50 [14] was 4.95. It also gave a pEC50 [15] of 5.02, a GI50 (Homo sapiens, ARH-77, ARH-77, Myeloma, read-out: Cell Count GI50) of 9.57 µM and a pIC50 [15] of 5.02. For the same molecule, the pEC50 [16] was 4.85, the GI50 (Homo sapiens, ASPC1, AsPC-1, Pancreas, read-out: Cell Count GI50) was 13.8 µM and the pIC50 [16] was 4.85. For the same molecule, the pEC50 [17] was 5.19, the GI50 (Homo sapiens, AU565, AU565, Breast, read-out: Cell Count GI50) was 6.29 µM and the pIC50 [17] was 5.19. The pEC50 (Homo sapiens, BC-1, Lymphoma) was 5.10, the GI50 (Homo sapiens, BC-1, Lymphoma, read-out: Cell Count GI50) was 7.93 µM and the pIC50 (Homo sapiens, BC-1, Lymphoma) was 5.10. The pEC50 [18] was 5.07, the GI50 (Homo sapiens, BCP-1, BCP-1, Lymphoma, read-out: Cell Count GI50) was 8.4 µM and the pIC50 [18] was 5.07. For the same molecule, the pEC50 [19] was 5.16, the GI50 (Homo sapiens, BE(2)-C, BE(2)C, CNS - Neuroblastoma, read-out: Cell Count GI50) was 7.48 µM and the pIC50 [19] was 5.12. The pEC50 [20] was 5.10, the GI50 (Homo sapiens, BFTC-905, BFTC-905, Bladder, read-out: Cell Count GI50) was 8.01 µM and the pIC50 [20] was 5.10. For the same molecule, the pEC50 [21] was 4.85, the GI50 (Homo sapiens, BHT-101, BHT-101, Endocrine - Thyroid, read-out: Cell Count GI50) was 13.9 µM and the pIC50 [21] was 4.85. For the same molecule, the pEC50 [22] was 4.72, the GI50 (Homo sapiens, BM-1604, BM-1604, Prostate, read-out: Cell Count GI50) was 18.9 µM and the pIC50 [22] was 4.72. The pEC50 [23] was under 4.52, the GI50 (Homo sapiens, BPH-1, BPH1, Prostate, read-out: Cell Count GI50) was over 30 µM and the pIC50 [23] was under 4.52. It also gave a pEC50 [24] of 4.91, a GI50 (Homo sapiens, BT-20, BT20, Breast, read-out: Cell Count GI50) of 12.3 µM and a pIC50 [24] of 4.90. It also gave a pEC50 (Homo sapiens, BT-474, BT474, Breast) of under 4.52.
